According to ChEMBL document CHEMBL1201862, “PubChem BioAssay data set” (2004):
Counter-ions that a name gives are not always drawn. Activity calls are given as the source filed them.

Key:
[1] = test system: Streptococcus sp. 'group A'; test: growth inhibition of control SK(-) GAS strain, dose response, counter-screen for streptokinase expression inhibitor project, luminescence, kanamycin, BacTiterGlo, confirmation (AID 1900); format: functional, organism-based
[2] = test system: P388/ADR; test: cells; format: functional; settings: Mus musculus
[3] = test system: P388; test: cells; format: functional; settings: Mus musculus, P388
[4] = test system: SN12K1; test: cells; format: functional; settings: Homo sapiens, SN12K1
[5] = Luminescence-based dose response cell-based high throughput screening assay for cytotoxic compounds using the IEC-6 intestinal epithelial cell line. [Related pubchem assays: 1858 (Summary AID.), 1825 (Counterscreen.), 1907 (Confirmation screen.)]; format: functional
[6] = target: T1, Streptokinase A (Streptococcus pyogenes serotype M1, UniProt P10520); test: S. pyogenes streptokinase expression inhibitors, potency, dose response, plasminogen activation absorbance, OD405 (AID 1914); format: functional, Streptococcus pyogenes M1 GAS;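 also: secreted streptokinase activity via plasminogen activation per viability signal from cell pellet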
T1 sequence (P10520 whole entry): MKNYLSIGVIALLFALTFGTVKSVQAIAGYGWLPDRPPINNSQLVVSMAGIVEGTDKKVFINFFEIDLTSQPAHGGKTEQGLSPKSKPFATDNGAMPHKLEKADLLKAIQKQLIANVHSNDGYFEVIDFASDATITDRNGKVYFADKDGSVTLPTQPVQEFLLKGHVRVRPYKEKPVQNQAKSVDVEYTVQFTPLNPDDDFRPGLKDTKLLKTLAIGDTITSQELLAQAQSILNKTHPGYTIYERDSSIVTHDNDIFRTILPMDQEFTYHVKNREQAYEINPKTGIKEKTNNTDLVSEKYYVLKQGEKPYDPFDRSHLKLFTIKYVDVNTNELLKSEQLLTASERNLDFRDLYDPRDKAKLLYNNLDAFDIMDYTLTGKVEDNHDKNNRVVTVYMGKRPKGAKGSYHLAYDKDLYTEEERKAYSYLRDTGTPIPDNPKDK

[7] = test system: Streptococcus; test: Group A Streptococcus viability loss, dose response, counter-screen for streptokinase expression inhibitor project, luminescence, BacTiterGlo (AID 1915); format: functional, organism-based;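 also: potency for reduction of bacterial viability or growth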
[8] = target: T2, SUMO-activating enzyme (Homo sapiens, UniProt Q9UBT2); test: inhibitors of in vitro SUMOylation cascade, primary screen, biochemical, HTRF, uHTS (AID 2006); format: protein-complex assay
T2 sequence (Q9UBE0 whole entry): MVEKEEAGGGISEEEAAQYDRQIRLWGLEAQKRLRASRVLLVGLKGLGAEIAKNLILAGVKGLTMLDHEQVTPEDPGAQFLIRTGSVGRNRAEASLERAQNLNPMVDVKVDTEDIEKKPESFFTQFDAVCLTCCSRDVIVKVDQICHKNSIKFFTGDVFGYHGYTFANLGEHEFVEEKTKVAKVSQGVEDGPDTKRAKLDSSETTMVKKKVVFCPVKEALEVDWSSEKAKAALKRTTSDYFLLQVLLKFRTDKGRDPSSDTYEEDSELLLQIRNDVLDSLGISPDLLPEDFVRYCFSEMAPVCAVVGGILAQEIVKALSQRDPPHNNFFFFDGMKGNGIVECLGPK
T2 sequence (Q9UBT2 whole entry): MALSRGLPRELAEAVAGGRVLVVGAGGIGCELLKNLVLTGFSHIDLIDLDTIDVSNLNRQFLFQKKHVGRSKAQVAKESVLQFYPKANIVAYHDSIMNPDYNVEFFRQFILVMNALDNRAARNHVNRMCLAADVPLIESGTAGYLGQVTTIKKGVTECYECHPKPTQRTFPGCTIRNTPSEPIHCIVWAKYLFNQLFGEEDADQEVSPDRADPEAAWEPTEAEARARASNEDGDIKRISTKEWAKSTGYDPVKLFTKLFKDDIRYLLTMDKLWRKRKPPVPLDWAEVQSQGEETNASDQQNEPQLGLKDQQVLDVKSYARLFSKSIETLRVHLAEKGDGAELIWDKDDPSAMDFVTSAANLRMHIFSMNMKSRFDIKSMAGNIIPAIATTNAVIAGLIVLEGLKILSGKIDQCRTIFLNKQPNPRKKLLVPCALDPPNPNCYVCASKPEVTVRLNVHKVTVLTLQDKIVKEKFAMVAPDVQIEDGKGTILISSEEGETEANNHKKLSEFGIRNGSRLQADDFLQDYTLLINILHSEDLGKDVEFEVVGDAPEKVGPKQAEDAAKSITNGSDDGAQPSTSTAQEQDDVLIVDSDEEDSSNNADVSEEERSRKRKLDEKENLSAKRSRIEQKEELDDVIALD

[9] = target: T2, SUMO-activating enzyme; test: SUMOylation inhibitor hit validation, confirmation, SUMOylation inhibitor project, biochemical, AlphaScreen (AID 2018); format: functional
[10] = target: Genome polyprotein (Hepatitis C virus, UniProt Q2Q167); test: HCV core protein dimerization inhibitors, dose response, biochemical, TR-FRET (AID 2159); parameters: species or system Hepacivirus hominis;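 also: blocks dimerization of HCV core protein measured by TR-FRET between tagged core106 pairs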
Sequence of Genome polyprotein (Q2Q167 whole entry): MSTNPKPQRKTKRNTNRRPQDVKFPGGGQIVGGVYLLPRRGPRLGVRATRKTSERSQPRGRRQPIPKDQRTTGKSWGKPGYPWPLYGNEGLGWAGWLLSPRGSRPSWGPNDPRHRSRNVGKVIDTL

[11] = target: NADPH oxidase 1 (Homo sapiens, UniProt Q9Y5S8); test: Late-stage luminescence-based cell-based dose response assay to identify inhibitors of NADPH oxidase 1 (NOX1): Synthesized analogs 2.; format: functional
Sequence of NADPH oxidase 1 (Q9Y5S8 whole entry): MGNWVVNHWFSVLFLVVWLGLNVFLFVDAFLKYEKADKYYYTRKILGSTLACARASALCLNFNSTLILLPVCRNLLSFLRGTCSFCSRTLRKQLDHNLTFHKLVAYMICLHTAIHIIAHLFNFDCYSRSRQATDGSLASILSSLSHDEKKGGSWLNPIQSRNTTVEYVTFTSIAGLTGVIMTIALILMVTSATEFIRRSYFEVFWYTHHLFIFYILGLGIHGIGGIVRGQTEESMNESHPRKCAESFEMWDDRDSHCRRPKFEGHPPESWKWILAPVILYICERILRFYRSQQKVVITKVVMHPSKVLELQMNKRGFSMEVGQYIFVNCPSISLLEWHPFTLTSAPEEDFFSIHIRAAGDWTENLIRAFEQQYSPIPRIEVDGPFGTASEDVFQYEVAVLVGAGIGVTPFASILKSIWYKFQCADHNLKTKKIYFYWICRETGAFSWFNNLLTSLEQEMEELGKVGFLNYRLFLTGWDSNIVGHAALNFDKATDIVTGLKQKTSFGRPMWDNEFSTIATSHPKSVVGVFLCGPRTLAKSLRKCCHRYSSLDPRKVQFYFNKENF

[12] = Luminescent dose response cell-based high throughput screening assay for inhibitors of the Janus kinase 2 mutant JAK2V617F. [Related pubchem assays: 1446 (Primary screen.), 1521 (Confirmation assay.), 1486 (Counter screen.)]; format: functional
[13] = target: Disintegrin and metalloproteinase domain-containing protein 17 (Homo sapiens, UniProt P78536); test: exosite inhibitors of ADAM17, dose response, biochemical (AID 743260)
Sequence of Disintegrin and metalloproteinase domain-containing protein 17 (P78536 whole entry, the tested form may be a part): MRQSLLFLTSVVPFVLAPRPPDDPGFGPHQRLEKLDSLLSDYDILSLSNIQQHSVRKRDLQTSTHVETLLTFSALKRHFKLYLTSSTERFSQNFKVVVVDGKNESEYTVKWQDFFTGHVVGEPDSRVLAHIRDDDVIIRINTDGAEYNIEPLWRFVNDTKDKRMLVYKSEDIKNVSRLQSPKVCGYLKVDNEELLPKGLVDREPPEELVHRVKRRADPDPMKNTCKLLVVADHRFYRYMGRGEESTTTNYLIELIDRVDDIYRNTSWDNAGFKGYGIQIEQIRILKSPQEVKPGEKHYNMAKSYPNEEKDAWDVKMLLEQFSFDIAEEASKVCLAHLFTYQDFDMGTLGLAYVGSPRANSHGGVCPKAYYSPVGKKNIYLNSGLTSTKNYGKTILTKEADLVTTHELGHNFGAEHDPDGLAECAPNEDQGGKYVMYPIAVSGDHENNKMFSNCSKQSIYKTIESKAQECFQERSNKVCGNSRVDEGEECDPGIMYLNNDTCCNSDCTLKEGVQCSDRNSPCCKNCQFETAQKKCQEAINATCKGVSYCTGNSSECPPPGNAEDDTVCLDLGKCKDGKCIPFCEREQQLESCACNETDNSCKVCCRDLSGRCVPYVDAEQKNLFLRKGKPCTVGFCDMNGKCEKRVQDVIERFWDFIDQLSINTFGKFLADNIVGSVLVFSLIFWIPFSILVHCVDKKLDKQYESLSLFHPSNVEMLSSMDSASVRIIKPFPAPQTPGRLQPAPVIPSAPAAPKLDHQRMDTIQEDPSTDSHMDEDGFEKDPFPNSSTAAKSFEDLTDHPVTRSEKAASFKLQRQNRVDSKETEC

[14] = target: Mitogen-activated protein kinase 10 (Homo sapiens, UniProt P53779); test: Dose response biochemical screening assay for inhibitors of c-Jun N-Terminal Kinase 3 (JNK3). [Related pubchem assays: 746 ]
Sequence of Mitogen-activated protein kinase 10 (P53779 whole entry): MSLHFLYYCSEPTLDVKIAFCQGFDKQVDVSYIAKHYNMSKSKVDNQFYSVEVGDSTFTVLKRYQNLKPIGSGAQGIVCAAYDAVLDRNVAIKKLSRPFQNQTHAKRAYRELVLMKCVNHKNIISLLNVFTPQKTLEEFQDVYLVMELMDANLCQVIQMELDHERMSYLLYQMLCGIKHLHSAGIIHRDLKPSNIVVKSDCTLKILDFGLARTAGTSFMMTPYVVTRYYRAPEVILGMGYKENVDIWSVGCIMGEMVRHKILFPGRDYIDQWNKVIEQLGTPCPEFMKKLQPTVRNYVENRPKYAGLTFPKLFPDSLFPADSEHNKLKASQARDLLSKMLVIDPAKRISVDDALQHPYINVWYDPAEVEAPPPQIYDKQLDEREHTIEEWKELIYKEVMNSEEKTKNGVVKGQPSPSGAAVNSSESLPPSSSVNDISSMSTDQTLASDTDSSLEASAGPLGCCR

[15] = ADAM10 protease inhibitors, dose response, selectivity assay for ADAM17 exosite inhibitor project, biochemical, FRET peptide substrate, recombinant human ADAM10 (AID 743259);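 also: ADAM10 enzyme cleaving a FRET peptide substrate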
[16] = inhibitors of Vif binding to APOBEC3G peptide, primary screen, biochemical, TR-FRET, GST-Vif 1-94, biotin-A3G peptide, dose response retest (AID 1117319); format: functional;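 also: TR-FRET signal of purified GST-Vif binding a biotinylated A3G peptide; inhibitors lower the FRET signal by blocking Vif and A3G binding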
[17] = target: Induced myeloid leukemia cell differentiation protein Mcl-1 (Homo sapiens, UniProt Q07820); format: functional
Sequence of Induced myeloid leukemia cell differentiation protein Mcl-1 (Q07820 whole entry): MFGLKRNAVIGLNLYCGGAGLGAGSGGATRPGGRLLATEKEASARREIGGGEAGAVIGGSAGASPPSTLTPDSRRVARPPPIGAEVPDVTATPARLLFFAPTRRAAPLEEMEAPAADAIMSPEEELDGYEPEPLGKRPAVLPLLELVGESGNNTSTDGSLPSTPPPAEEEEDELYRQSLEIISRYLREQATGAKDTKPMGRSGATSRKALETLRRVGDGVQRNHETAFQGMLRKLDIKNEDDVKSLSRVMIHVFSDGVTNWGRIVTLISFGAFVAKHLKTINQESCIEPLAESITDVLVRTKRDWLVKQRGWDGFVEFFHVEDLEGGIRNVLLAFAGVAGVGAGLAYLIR

[18] = P. falciparum Dd2 growth inhibitors, dose response, SYBR Green, dry powder samples, set 9 (AID 1159568); format: functional, cell-based
[19] = HepG2 cell cytotoxicity, dose response, cytotoxicity control, plate reader, cherry-pick, antagonist series (AID 743416); format: functional, cell-based
[20] = LGR2 antagonists, dose response, cell-based, HEK293, CRE-luciferase reporter, cherry pick, set 2 (AID 743343); format: functional;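 also: transfected cells were stimulated with diluted bursicon conditioned medium after compound addition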
[21] = MC4R antagonists, dose response, counter-screen for LGR2 antagonist project, cell-based, plate reader, cherry pick (AID 743444); format: functional;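 also: transfected HEK 293 cells stimulated with alpha-MSH peptide; potency of inhibitors of the alpha-MSH evoked signal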
[22] = HEK293 cell cytotoxicity, dose response, cytotoxicity control, plate reader, cherry-picked samples (AID 743446); format: functional, cell-based
[23] = HepG2 cell cytotoxicity, dose response, cytotoxicity control, cherry-picks, set 5 (AID 1053118); format: functional, cell-based
[24] = A549 cell cytotoxicity, dose response, cytotoxicity control, plate reader, cherry-pick, antagonist series (AID 743412); format: functional, cell-based
[25] = A549 cell cytotoxicity, dose response, cytotoxicity control, cherry-picks, 26 µM top dose (AID 1053119); format: functional, cell-based
[26] = CEM21 lymphoblast cell cytotoxicity, dose response, cytotoxicity control for viral fusion inhibitor project, CellTiter-Glo luminescence, cherry-picked (AID 652042); format: functional, cell-based;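 also: potency for signal decrease meaning cytotoxicity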
[27] = M. tuberculosis growth inhibition, HTS (AID 449762); format: functional
[28] = microbe, parasite or virus in culture; format: functional; settings: Mycobacterium tuberculosis
[29] = target: Beta-galactosidase (Escherichia coli, UniProt Q8VNN2); test: Dose response counterscreen for EBI2 assay utilizing the enzyme, b-galactosidase.; format: functional
Sequence of Beta-galactosidase (Q8VNN2 whole entry): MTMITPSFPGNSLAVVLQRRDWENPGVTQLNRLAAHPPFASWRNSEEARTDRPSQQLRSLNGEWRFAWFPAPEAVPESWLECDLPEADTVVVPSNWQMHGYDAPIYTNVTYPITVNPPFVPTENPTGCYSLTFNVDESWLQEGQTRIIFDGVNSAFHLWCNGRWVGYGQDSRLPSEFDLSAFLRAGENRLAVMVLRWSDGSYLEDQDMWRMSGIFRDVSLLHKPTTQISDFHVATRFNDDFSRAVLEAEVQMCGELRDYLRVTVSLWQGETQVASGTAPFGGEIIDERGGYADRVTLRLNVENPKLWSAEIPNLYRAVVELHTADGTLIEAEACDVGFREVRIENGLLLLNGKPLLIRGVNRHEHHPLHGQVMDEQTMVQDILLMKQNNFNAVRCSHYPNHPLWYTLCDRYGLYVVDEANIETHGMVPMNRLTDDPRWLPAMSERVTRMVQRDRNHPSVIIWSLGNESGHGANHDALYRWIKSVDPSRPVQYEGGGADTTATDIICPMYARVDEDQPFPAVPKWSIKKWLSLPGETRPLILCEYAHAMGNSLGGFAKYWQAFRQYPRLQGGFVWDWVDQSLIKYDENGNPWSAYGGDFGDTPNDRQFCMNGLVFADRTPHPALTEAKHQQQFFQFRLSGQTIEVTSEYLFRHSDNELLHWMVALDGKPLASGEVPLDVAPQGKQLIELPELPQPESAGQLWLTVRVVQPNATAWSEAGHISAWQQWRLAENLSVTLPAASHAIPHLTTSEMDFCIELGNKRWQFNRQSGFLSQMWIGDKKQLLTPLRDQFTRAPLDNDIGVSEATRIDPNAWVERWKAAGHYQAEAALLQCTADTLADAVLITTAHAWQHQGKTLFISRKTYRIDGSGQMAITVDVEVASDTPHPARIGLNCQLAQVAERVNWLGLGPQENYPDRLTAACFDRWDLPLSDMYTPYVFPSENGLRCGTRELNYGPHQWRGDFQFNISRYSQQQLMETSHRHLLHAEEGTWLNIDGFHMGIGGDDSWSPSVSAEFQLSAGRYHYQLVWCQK

[30] = inhibitors of Bluetongue virus cytopathic effect, confirmation, arbovirus, BSR cells (AID 1250); format: functional;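 also: protection from viral cytopathic effect measured as cell viability by ATP luminescence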
[31] = target: Protein Tat (Human immunodeficiency virus type 1 group M subtype B (isolate HXB2)(HIV-1), UniProt P04608); format: functional;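 also: tat binding to TAR RNA read out by fluorescence polarization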
Sequence of Protein Tat (P04608 whole entry): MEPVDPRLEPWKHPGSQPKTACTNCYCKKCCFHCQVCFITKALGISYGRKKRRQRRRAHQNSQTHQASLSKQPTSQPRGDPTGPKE

Structure (SMILES): N=c1ccn2c(n1)O[C@H]1[C@H](O)[C@@H](CO)O[C@H]12 [ANCITABINE HYDROCHLORIDE]
- EC50 [1]: 3.2 µM (active)
- GI50 [2]: 205 nM (active)
- GI50 [3]: 103 nM (active)
- GI50 [4]: 191 nM (active)
- IC50 [5]: 1.79 µM (active)
- EC50 [6]: > 150 µM (not active)
- EC50 [7]: 53.1 µM (active)

Structure (SMILES): COc1ccccc1/C=C/C=c1\sc2nc(=O)c(Cc3ccccc3)nn2c1=O
- IC50 [8]: 11.8 µM (active)
- IC50 [9]: 8.53 µM (active)
- IC50 [10]: > 49.8 µM (not active)

Structure (SMILES): CN1c2ccc(Br)cc2Sc2cc(Br)ccc21
- IC50 [11]: > 50 µM (not active)

Structure (SMILES): Cc1nn2c(NCc3ccccn3)c3c(nc2c1-c1ccccc1)CCC3
- IC50 [12]: 1.03 µM (active)

Structure (SMILES): C=C(C)COc1ccc(-c2nc(N)ncc2-c2ccc(OC)cc2)c(O)c1
- IC50 [13]: > 69.5 µM (inactive)
- IC50 [14]: 29.4 µM (not active)
- IC50 [15]: > 69.5 µM (inactive)

Structure (SMILES): Cn1cc(CN2CCN(CCO)CC2)c(-c2ccc(Oc3ccccc3)cc2)n1
- IC50 [16]: > 100 µM (active)

Structure (SMILES): CN(C)c1ccc(/C=N/N(Cc2ccccc2)c2ccccc2)cc1
- IC50 [17]: 1.52 µM (not active)

Structure (SMILES): O=C(C[C@@H]1C[C@@H]2c3cc(NC(=O)c4ccc5c(c4)OCO5)ccc3O[C@@H]2[C@@H](CO)O1)NCc1ccc(Oc2ccccc2)cc1
- AC50 [18]: 5.69 µM (active)
- AC50 [19]: 27.7 µM (active)
- AC50 [20]: 33.3 µM (active)
- AC50 [21]: 7.28 µM (active)
- AC50 [22]: 24.7 µM (active)
- AC50 [23]: 37.1 µM (active)
- AC50 [24]: 21.2 µM (active)
- AC50 [25]: 30.2 µM (active)
- AC50 [26]: 26.1 µM (active)

Structure (SMILES): O=C(c1cc2cc(Cl)ccc2[nH]1)N1CCN(Cc2ccc3c(c2)OCO3)CC1
- IC50 [27]: > 100 µM (active)
- CC50 [28]: > 40 µM (active)
- IC50 [29]: > 80 µM (inactive)

Structure (SMILES): N#Cc1c(O)nc(SCC(=O)Nc2nnc(C(F)(F)F)s2)nc1-c1ccccc1
- IC50 [30]: 28.1 µM (active)

Structure (SMILES): COc1ccccc1N1C(=O)CC(Nc2ccc(N3CCOCC3)cc2)C1=O (stereo unspecified)
- IC50 [31]: 20.1 µM (inconclusive)
